Source: patent US20140142333A1, “NOVEL ANILINE DERIVATIVES AND USE THEREOF” (NEOMICS Co, Ltd., priority 2011, published 2014)

Tests used:
NCI-H460 cells = test: nude mouse transplanted with NCI-H460 cells, tumor growth inhibition; type: in vivo; conditions: salt form, 50 mg/kg once a day, 27 days
Experimental: A nude mouse transplanted with NCI-H460 cells (human-derived lung cancer cell line) was administered with the […], through intra-abdominal cavity and intra-subcutaneous injection. Then, a growth inhibiting effect of a tumor was tested. Mice were divided into three groups such as a negative control group, and groups administered with a test material in doses of 50 and 100 mg/kg. Each group included 10 mice. The negative control group was administered with a mixture solution containing DMSO (excipient), Tween80, PEG400, and injection water, and the groups administered with the test material in doses of 50 mg/kg were administered with the inventive compound once a day, for 27 days including an autopsy day, 28 times in total (4 times for intra-abdominal cavity injection and 24 times for intra-subcutaneous injection.
During the observation period, general symptoms were observed once a day, and the body weight of an animal and the volume of a tumor were measured twice a week. On the day before autopsy, all individuals were fasted for 18 hours or more. On the day of autopsy, 0.5, 1 and 2 hours 1 after the test material was administered, from 3 mice, 3 mice and 4 mice from respective groups, blood was collected and tumor was extracted.
The collected blood was placed in an EDTA-containing tube, and centrifuged to separate plasma. The extracted tumor was weighed. Half of the plasma and the tumor were rapidly frozen by liquid nitrogen and placed in a frozen state, and the rest were fixed with 10% neutral buffered formalin solution and sent to a test client.

NCI-H460 [1] = test: FACS assay of apoptosis in NCI-H460; type: cell-based, human; conditions: medium containing 2% FBS; FIG. 7
Experimental: Lung cancer cell line, NCI-H460, was cultured in RPMI (HyQ RPMI-1640, Hyclone) of streptomycin, containing 10% fetal bovine serum, and 1% penicillin. In order to investigate the effect of the inventive compound on a cell cycle, cells were treated with the inventive compound and cultured in medium containing 2% FBS. The cells were collected and subjected to FACS assay.

NCI-H460 [2] = test: MTT assay on lung cancer cell line NCI-H460; type: cell-based, human; conditions: 0.04 uM, 0.4 uM and 4 uM; 24, 48 and 72 hours; serum free RPMI; FIG. 6
Experimental: Lung cancer cell line, NCI-H460, was cultured in RPMI (HyQ RPMI-1640, Hyclone) medium of streptomycin, containing 10% fetal bovine serum and 1% penicillin for 48 hours, and transferred to a 96-well plate. 12 hours later, the medium was replaced by serum free RPMI medium, and then the cell line was treated with the compound of Formula 1 at a concentration of 0.04 uM, 0.4 uM and 4 uM. 24 hours, 48 hours, and 72 hours later, MTT assay at each concentration was performed.

WI-26 cells = test: MTT assay on normal WI-26 cells (cytotoxicity); type: cell-based; conditions: MTT assay after 48 hours; data not shown
Experimental: As a result, 22 compounds were primarily screened. Normal cells, that is, WI-26 cells were treated with the 22 compounds.

With CCOC(=O)CC(=O)Nc1ccc(C(=O)O)cc1 [P.C] the “body weight of mouse vs control group” value (NCI-H460 cells; FIG. 10) was “no difference”, the “tumors observed (photograph) vs control group” value (NCI-H460 cells; FIG. 12) was “visibly significantly reduced” and the “weight of tumor vs control group” value (NCI-H460 cells; at autopsy, FIG. 11) was “significantly reduced”. The “volume of the tumor vs control group” value (NCI-H460 cells; intra-abdominal and subcutaneous injection, FIG. 9) was “significantly reduced”, the “apoptosis rate of cancer cells (FACS)” value (NCI-H460 [1]) was “concentration-dependently improves apoptosis rate” and the “cell death of lung cancer cells (MTT)” value (NCI-H460 [2]) was “cell death depending on treating time and concentration”. The “cytotoxicity in normal WI-26 cells” value (WI-26 cells) was “no cytotoxicity”.
